Laboratory results published in PubChem BioAssay (NCI).
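Dose response: 5 concentrations. Exposure: 48 h. Format: 96-well plates. Endpoint: linear interpolation; highest concentration if not reached. TGI: concentration producing complete growth inhibition.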

Experiments:
Experiment in all cases: NCI anticancer screen, dose series, 48 h
786-0 renal = test system: 786-0 renal
CCRF-CEM leukemia = test system: CCRF-CEM leukemia
HL-60(TB) leukemia = test system: HL-60(TB) leukemia
IGROV1 ovarian = test system: IGROV1 ovarian
M14 melanoma = test system: M14 melanoma
RXF 393 renal = test system: RXF 393 renal
SK-OV-3 ovarian = test system: SK-OV-3 ovarian
SNB-19 CNS = test system: SNB-19 CNS
U251 CNS = test system: U251 CNS
MCF7 breast = test system: MCF7 breast

SMILES	TGI (786-0 renal) [µM]	TGI (CCRF-CEM leukemia) [µM]	TGI (HL-60(TB) leukemia) [µM]	TGI (IGROV1 ovarian) [µM]	TGI (M14 melanoma) [µM]	TGI (RXF 393 renal) [µM]	TGI (SK-OV-3 ovarian) [µM]	TGI (SNB-19 CNS) [µM]	TGI (U251 CNS) [µM]	TGI (MCF7 breast) [µM]
CCSC12OC3(CCCCCN3C1=O)C1C(=O)N(c3ccccc3)C(=O)C12 (stereo not given)	> 100	> 100	> 100	> 100	> 100	> 100	> 100	> 100	> 100	
COP(=O)(CP(=O)(OC)OCCC(C)CCC=C(C)C)OC (stereo not given)	> 100	> 100		> 100	> 100	> 100	> 100	> 100	87.8	> 100
Cc1cn(C2CC(O)C(Cn3nncc3Cn3nc(Br)c(=O)[nH]c3=O)O2)c(=O)[nH]c1=O (stereo not given)	> 100	> 100		> 100	> 100	> 100	> 100	> 100	> 100	> 100
COc1cc(C(c2ccccc2)N2C(=O)CC[C@H]2C(=O)O)cc(OC)c1OC (stereo not given in full)	> 100	> 100	> 100	> 100	> 100		> 100	> 100	> 100	> 100
CC1(C)CC(=O)C(CC2C(=O)CCCC2=O)C(=O)C1	> 100	> 100	> 100	> 100	> 100	> 100	> 100	> 100	> 100	
C/C(=N\N=C(N)N)C(CN1CCOCC1)C(c1ccccc1)c1c(O)c2ccccc2oc1=O (stereo not given)	> 100	> 100	> 100	> 100	> 100	> 100	> 100	> 100	> 100	
O=S(=O)(O)c1ccc(O)c(N=Nc2c(O)ccc3ccccc23)c1	> 100	86.9		> 100	> 100	> 100	> 100	> 100	> 100	
O=C1Sc2ccccc2C(=O)N2CCSC12 (stereo not given)		> 100	> 100		> 100	> 100	> 100	> 100	> 100	
CC(=O)NC1C(OCc2ccccc2)OC(CO)C(O)C1OC(C)C(=O)NC(C(=O)NC(CCC(=O)NCCCNc1ccc([N+](=O)[O-])c2[nH]c3ccccc3c(=O)c12)C(N)=O)C(C)C (stereo not given)	> 100	> 100	> 100	> 100	> 100		> 100	> 100	> 100	> 100
O=C1CCC2(O)c3ccccc3C2Cc2ccccc21 (stereo not given)	> 100	> 100	> 100	> 100		> 100		> 100	> 100	
CC(=O)C(CN1C(=O)c2ccccc2C1=O)C(C)=O	> 100			> 100	> 100	53.8	> 100	> 100	> 100	> 100
Cc1cc(N(CCC#N)CCC#N)ccc1/C(N=Nc1ccc(C(=O)O)cc1)=N\NC(=O)c1ccccc1	> 100	> 100		> 100	> 100	> 100	> 100	> 100	> 100	> 100
COc1ccc(C2N(c3ccc(C)c(N=C=O)c3)C(=O)N3C(c4ccc(OC)cc4)N(c4ccc(C)c(N=C=O)c4)C(=O)N23)cc1 (stereo not given)	> 100	> 100	> 100	> 100	> 100	> 100		> 100	> 100	> 100
O=C1C(c2ccccc2)=C(c2ccccc2)C1(Cl)Cl	7.36	3.96	2.17	15.3	5.9		29.2	32.9	7.68	9.92
CCCCCCCCCCCC(=O)N(CCCCCCCCC)CC(O)C(O)C(OC1OC(CO)C(O)C(O)C1O)C(O)CO (stereo not given)	32.8	41	45.8	33.6	36.9	50		40.4	35.5	> 100
Clc1ccc(C2SCc3nc4ccccc4n32)cc1 (stereo not given)		78.9	22.6	55.9	68.1		69.9	77	66.2	
COc1cc2nc(-c3cccs3)nc(Nc3ccccc3C(=O)NN)c2cc1OC	> 100	> 100	> 100	> 100	> 100		> 100	> 100	> 100	> 100
N#CC1=C(O)NC(O)=C(C#N)C1c1c(Cl)cccc1Cl		> 100	> 100	> 100	> 100	28.7	69.1	> 100	> 100	
O=[N+]([O-])c1c(O)c2nonc2c2nn(-c3ccccc3)nc12	> 100	> 100	> 100	> 100	> 100		> 100	> 100	> 100	> 100
COc1ccc(C(C2=C(O)CC(C)OC2=O)C2=C(O)CC(C)OC2=O)cc1 (stereo not given)	> 100	> 100		> 100	> 100			> 100	> 100	
CC(C)(C)OC(=O)N1C(=O)C2CCCC21 (stereo not given)	> 100	> 100	> 100	> 100	> 100	> 100	> 100	> 100	> 100	
CCCCCCc1ccc(CCCCCCCC(=O)O)o1	> 100	> 100		> 100	> 100		> 100	> 100		> 100
CCOC(=O)c1nc2ccccc2nc1Nc1ccc(C(=O)OC)s1	> 100	> 100	> 100	> 100	> 100			> 100	> 100	> 100
CCOC(=O)c1sc2nc(SC)nc3c2c1NCN3C	47.3	> 100		39.2	> 100	32.8	38.3	75.3	46.9	
